Results from patent US9872919B2, “Prodrugs for selective anticancer therapy” (THE RESEARCH FOUNDATION FOR THE STATE UNIVERSITY OF NEW YORK, priority 2012, dated 2018).

Key:
[1] = test system: pancreatic cancer cells (BXPC-3 and MiaPaca-2); test: MTS cell viability assay, pancreatic cancer cell lines; format: cell-based, human
Protocol: FIG. 16. Anticancer effect of BKAc-Puro on pancreatic cell lines. The cell lines were treated with DMSO (vehicle), BKAc-Puro (54 μM), or Puro (4.2 μM) for 5 d followed by MTS assay. Normal Eph4 (non-pancreatic) cells are shown as control. Data represent mean values of triplicate mesurements±s.d.
FIG. 18. Selective cytotoxicity by BKAc-Puro on pancreatic cancer cells. Pancreatic cancer (BXPC-3 and Miapaca-2), colon cancer (HCT116 as a positive control sensitive to the drug), and normal colon (CCD841-CoN as a negative control) cells were grown and analyzed as in FIG. 13. […]
(§1) Cell number was determined by cell counting using improved Neubauer hemacytometer. Cell viability was calculated as the number of viable cells divided by the total number of cells using Trypan Blue Stain (Invitrogen) to distinguish non-viable cells. […] After additional 2-3 h incubation, the absorbance of the formazan at 490 nm was measured by the microplate reader. […] Determination of non-viable cells using PI staining was performed by adding 1 μg/ml of PI solution (Sigma) to the cell culture, prior to the examination under fluorescence microscopy (Axiovert 3, Carl Zeiss) through a×32 objective equipped with a digital imaging processor (Infinity 3, Lumenera).

[2] = test system: prostate cancer cells (PC-3, DU-145 and LNCaP); test: Cytotoxicity on prostate cancer cells (MTS); format: cell-based, human
Protocol: FIG. 19. Selective cytotoxicity by BKAc-Puro on prostate cancer cells. Prostate cancer (PC-3, DU-145, and LNCaP), colon cancer (HCT116 as a positive control sensitive to the drug), and normal colon (CCD841-CoN as a negative control) cells were grown and analyzed as in FIG. 13. BKAc-Puro can effectively cause cell death on prostate cancer cells.
as §1, with “cells. Data were obtained from duplicated samples with quadruplicate measurements. MTS based cell viability assay was performed using CellTiter 96 Aqueous Cell Proliferation Assay (Promega) according to the manufacturer's instruction.” for “cells.”

[3] = test system: HCT116 xenograft tumors; format: in vivo
Protocol: FIG. 29. In vivo anticancer efficacy of Boc-KAc-Puro. (a) Tumor growth in HCT116 xenograft model. Animals were treated with acidified saline control or Boc-KAc-Puro (50 or 150 mg/kg). Values are mean±s.d. (n=5 mice per group). ***P<0.001 compared to the control group. P=0.000716 (50 mg/kg), P=0.000349 (150 mg/kg) at 10 d. (b) Body weight change during the treatment in a was monitored as a sign of general animal health. Values are mean±s.d. (c) Tumor growth in HT29 xenograft model. Animals were treated with acidified saline control or Boc-KAc-Puro (150 mg/kg). Values are mean±s.d. (n=5 mice per group). ***P<0.001 compared to the control group. P=0.000514 (150 mg/kg) at 10 d. (d) Body weight change during the treatment in c was monitored as a sign of general animal health. Values are mean±s.d. (e) Levels of Puro-incorporated proteins were monitored by immunoblotting. Animals bearing HT29 xenograft tumor were given daily intraperitoneal administration of the prodrug at 150 mg/kg/dose for 3 d, followed by preparation of tissue lysates. The lower panel (anti-α-Tubulin) served as a loading control.
Athymic mice (NCr, female, age 6 weeks, Taconic) were subcutaneously injected with 5×10^5 cells (HCT116 or HT29) into the lower flank, then treatment was initiated when small palpable tumors had developed (>3 mm in diameter). […] Tumor volumes and body weight were monitored daily. […] Data were expressed as mean±s.d. […]

[4] = test system: HCT116, HT29, CCD841-CoN and Caco-2 cells; test: Immunological detection of Puro-labeled proteins in cells; format: cell-based, human
Protocol: (§2) FIG. 27. Levels of Puro-incorporated proteins in the cells were monitored by immunoblotting. Indicated cell lines were treated either with vehicle control DMSO or Boc-KAc-Puro (16.9 μM) in the presence or absence of TSA (0.5 μM) for 20 h, followed by preparation of cell lysates. The lower panel (anti-α-Tubulin) serves as a loading control.
as §2, with “28.” for “27.”, “Puro (2.1” for “Boc-KAc-Puro (16.9”, “16” for “20”, “lysates. […]” for “lysates.”
Cultured cells or tissue samples were sonicated in RIPA lysis buffer (1% NP-40, 0.1% SDS, 50 mM Tris-HCl pH 7.4, 150 mM NaCl, 0.5% sodium deoxycholate, 1 mM EDTA) supplemented with PMSF and protease inhibitor cocktail (Roche) on ice followed by clarification. Protein lysates were separated on sodium dodecyl sulfate-polyacrylamide gels and transferred onto nitrocellulose membranes (Whatman). The primary antibodies used were anti-puromycin (3RH11, KeraFAST) and anti-α-tubulin (Sigma-Aldrich). Proteins of interest were detected with anti-mouse secondary antibody by chemiluminescence (ECL Kit, GE Healthcare Life Sciences).

[5] = test system: malignant cell lines with high HDAC and CTSL activity (COGA-10, HCA-7, HT29, HCT116); test: MTS cell viability assay, malignant colon cancer cell lines; format: cell-based, human; conditions: 5 d, panel of colon cell lines, given as a range, read-out: IC50, inhibition of cell viability
Protocol: FIG. 13. Inhibition of cell viability by BKAc-Puro is presented in dose-response curve format for the same cell lines as in FIG. 8. The cell lines were treated with DMSO or the indicated doses of agent (4.22, 8.44, 16.9, 33.8, 67.5, or 135 μM) for 5 d followed by MTS assay. Data represent mean values of triplicate mesurements±s.d. (n=3). IC50 values were fit by logistic regression.
as §1, with “cells. Data were obtained from duplicated samples with quadruplicate measurements. MTS based cell viability assay was performed using CellTiter 96 Aqueous Cell Proliferation Assay (Promega) according to the manufacturer's instruction.” for “cells.”

In the case of `COc1ccc(C[C@H](NC(=O)[C@H](CCCCNC(C)=O)NC(=O)OC(C)(C)C)C(=O)N[C@H]2[C@@H](O)[C@H](n3cnc4c(N(C)C)ncnc43)O[C@@H]2CO)cc1` [BKAc-Puro, N-[3′-(α-Amino-p-methoxyhydrocinnamamido)-3′-deoxy-N,N-dimethyldenosinyl]-N-α-(t-butoxycarbonyl)-N-ε-acetyl-L-lysineamide], the “anticancer effect on cell viability” value ([1]; 54 μM, 5 d, MTS) is reported as “effective”, the cell death ([1]; cells known to be resistant to 5-FU and Gemicitabine) is reported as “effectively caused cell death” and the cell death [2] is reported as “effectively caused cell death”. The tumor growth ([3]; 50 and 150 mg/kg/dose daily intraperitoneally for 10 d) was “dose-dependent inhibition of tumor growth”, the “tumor mass vs acidified saline control” value ([3]; P<0.001, 50 and 150 mg/kg, 10 d) was “significantly smaller tumor mass” and the “intensity of Puro incorporation in the presence of TSA” value ([4]; TSA 0.5 μM) was “compromised intensity”. For the same compound, the “intensity of Puro incorporation, malignant vs normal and non-malignant cells” value ([4]; immunoblot, Boc-KAc-Puro 16.9 μM 20 h, Puro 2.1 μM 16 h) was “substantially greater in malignant cancer cells” and the IC50 [5] was about 10 µM.
